Measured values as given in article PMC7873226, “Molecular mechanism and structural basis of small-molecule modulation of the gating of acid-sensing ion channel 1” (Communications Biology, 2021).
Read-outs that look alike come from different tables or passages of the source.

Key:
rat ASIC1a = target: T1, rat ASIC1a (Rattus norvegicus, UniProt P55926); assay: Whole-cell patch clamp: inhibition of acid-induced current in CHO cells stably expressing rat ASIC1a; type: cell-based
T1 construct: expressed in transfected cells
T1 sequence (P55926 1-526): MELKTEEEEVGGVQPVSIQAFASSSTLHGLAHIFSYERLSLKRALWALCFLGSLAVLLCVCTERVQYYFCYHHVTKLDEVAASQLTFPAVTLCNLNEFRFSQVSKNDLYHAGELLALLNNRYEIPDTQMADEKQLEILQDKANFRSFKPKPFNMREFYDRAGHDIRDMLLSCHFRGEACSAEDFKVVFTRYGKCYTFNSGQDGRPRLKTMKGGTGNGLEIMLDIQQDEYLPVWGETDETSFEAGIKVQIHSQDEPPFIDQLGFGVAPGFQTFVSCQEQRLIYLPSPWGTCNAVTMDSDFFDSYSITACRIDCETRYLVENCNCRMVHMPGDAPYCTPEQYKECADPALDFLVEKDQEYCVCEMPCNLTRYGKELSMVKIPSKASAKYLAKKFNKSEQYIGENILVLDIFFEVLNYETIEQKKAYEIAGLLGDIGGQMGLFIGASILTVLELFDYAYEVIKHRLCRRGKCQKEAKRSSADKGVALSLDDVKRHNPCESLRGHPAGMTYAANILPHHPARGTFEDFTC
Description: Chinese Hamster Ovary (CHO) cells stably expressing rat ASIC1a were cultured in Ham’s F12, supplemented with 10% FBS, 1% penicillin–streptomycin and 500 µg/mL G418 and incubated at 37 °C with 5% CO2. Transient transfections of rASIC1a and cASIC1 wild-type or mutant channels in CHO cells were performed with Lipofectamine 3000 (Thermo Fisher Scientific) according to the manufacturer’s recommendations. The green fluorescent protein (GFP) cDNA (at 1/10 the amount of channel cDNA) was co-transfected with channel cDNA to aid the identification of transfected cells under the microscope in patch clamp experiments. All cDNAs were sequence verified.
Cells were freshly dissociated with CellStripper (Corning) and dispersed in a chamber on the stage of an inverted microscope. Upon formation of the whole-cell conformation, the cell was lifted from the bottom of the chamber and placed at the tip of a tubing perfusing an extracellular solution containing (in mM): 149 NaCl, 2 CaCl2, 4 KCl, 1 MgCl2, 5 glucose, 10 HEPES, pH 7.4, 310 mOsm/L. Extracellular solutions at more basic or acidic pHs were made by titrating the above pH 7.4 solution with NaOH or HCl (5 mM MES was added to solutions at pH 6.0 and lower). Pipette electrodes were filled with an intracellular solution containing (in mM): 135 KCl, 4 MgATP, 0.3 Na2GTP, 10 EGTA, and 20 HEPES, pH 7.2, 290 mOsm/L.
All recordings were performed at room temperature using an Axopatch 200B amplifier and pClamp 11 software (Molecular Devices). Currents were measured by whole-cell patch clamp, digitized at 10 kHz and lowpass filtered at 2 kHz. Series resistance was 75% compensated. Responses were elicited by rapid perfusion of acidic solutions using the SF-77B Fast-Step Perfusion device (Warner Instruments) for 40 ms once every 30 s (unless indicated otherwise) and recorded till steady state was reached. The holding potential was 0 mV unless indicated otherwise.
Baseline values (i.e., current amplitudes at the conditioning pH) were subtracted to obtain responses evoked by the test pH. Responses were normalized for each cell before averaging (see figure legends for more detail on normalization for each type of experiment). Concentration–response data were fitted to a logistic function of the form: R = (A1–A2)/(1 + (C/C0)^h)+A2, where R is the normalized response, C is either pH or compound concentration, C0 is the pH/concentration at which half-maximal response occurs (pH50 or IC50), h is the Hill coefficient, and A1 and A2 are constants. Kinetic parameters were obtained by fitting the data with either a single or double exponential function. Fitted data are shown as solid, dashed, or dotted curves.

ASIC2a = target: T2, ASIC2a (Rattus norvegicus, UniProt Q62962); assay: Activity at ASIC2a; type: cell-based; conditions: inactive at ASIC2a
T2 sequence (Q62962 1-512): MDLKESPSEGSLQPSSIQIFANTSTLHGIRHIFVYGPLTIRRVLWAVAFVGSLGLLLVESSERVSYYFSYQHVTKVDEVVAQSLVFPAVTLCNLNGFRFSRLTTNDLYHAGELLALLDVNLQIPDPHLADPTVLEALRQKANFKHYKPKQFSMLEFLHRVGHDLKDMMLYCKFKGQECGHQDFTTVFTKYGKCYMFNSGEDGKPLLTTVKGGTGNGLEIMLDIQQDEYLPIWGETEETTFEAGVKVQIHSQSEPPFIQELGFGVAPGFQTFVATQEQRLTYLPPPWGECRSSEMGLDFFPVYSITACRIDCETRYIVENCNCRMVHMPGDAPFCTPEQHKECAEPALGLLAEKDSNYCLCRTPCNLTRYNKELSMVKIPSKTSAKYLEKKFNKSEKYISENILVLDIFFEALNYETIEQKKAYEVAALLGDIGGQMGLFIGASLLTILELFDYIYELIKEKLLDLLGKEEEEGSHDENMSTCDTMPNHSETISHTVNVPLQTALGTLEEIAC

[1] = CHO, pH 6, pH6.0, 10 nM, read-out: current inhibition, mean (source data Fig. 1e)
[2] = CHO, pH 6, pH6.0, 30 nM, read-out: current inhibition, mean (source data Fig. 1e)
[3] = CHO, pH 6, pH6.0, 100 nM, read-out: current inhibition, mean (source data Fig. 1e)
[4] = CHO, pH 6, pH6.0, 300 nM, read-out: current inhibition, mean (source data Fig. 1e)
[5] = CHO, pH 6, pH6.0, 1000 nM, read-out: current inhibition, mean (source data Fig. 1e)
[6] = CHO, pH 7.1, pH7.1, 3 nM, read-out: current inhibition, mean (source data Fig. 1e)
[7] = CHO, pH 7.1, pH7.1, 10 nM, read-out: current inhibition, mean (source data Fig. 1e)
[8] = CHO, pH 7.1, pH7.1, 30 nM, read-out: current inhibition, mean (source data Fig. 1e)
[9] = CHO, pH 7.1, pH7.1, 100 nM, read-out: current inhibition, mean (source data Fig. 1e)
[10] = test pH 6.0, holding pH 8.2, WT

Compound | inhibition at 0.01 µM (rat ASIC1a; [1]) [%] | inhibition at 0.03 µM (rat ASIC1a; [2]) [%] | inhibition at 0.1 µM (rat ASIC1a; [3]) [%] | inhibition at 0.3 µM (rat ASIC1a; [4]) [%] | inhibition at 1 µM (rat ASIC1a; [5]) [%] | inhibition at 0.003 µM (rat ASIC1a; [6]) [%] | inhibition at 0.01 µM (rat ASIC1a; [7]) [%] | inhibition at 0.03 µM (rat ASIC1a; [8]) [%] | inhibition at 0.1 µM (rat ASIC1a; [9]) [%] | max %inhibition (rat ASIC1a; test pH 6.0, holding pH 8.2) [%] | IC50 (rat ASIC1a; [10]) [µM] | IC50 (rat ASIC1a; test pH 7.1, holding pH 8.2) [µM] | max %inhibition (rat ASIC1a; test pH 7.1, holding pH 8.2) [%] | IC50 (ASIC2a) [µM] | also measured
COc1ccc(Oc2ccc(-c3nc4cc(C(=N)N)ccc4[nH]3)cc2)cc1OC [JNJ-799760] | 23.5 | 45.7 | 66.3 | 78.3 | 80.7 | 45.1 | 74.6 | 94.4 | 99.1 | 83.1 ± 1.2 | 0.0249 ± 0.0013 | 0.0036 ± 0.0002 | 100 | > 50 | –
Cc1cc(N2CC(Oc3cc(F)c4c(N)n[nH]c4c3)C2)c(F)cn1 [JNJ-67869386] | 17.9 | 38.3 | 61.3 | 68.9 | 71.7 | 42.7 | 78.1 | 96.5 | 99.8 | 76.5 ± 2.2 | 0.0289 ± 0.0036 | 0.0038 ± 0.0002 | 100 | > 50 | inhibition at 0.01 µM (rat ASIC1a; CHO, pH 5, pH5.0, 10 nM, read-out: current inhibition, mean (source data Fig. 1e)): 8%; inhibition at 0.03 µM (rat ASIC1a; CHO, pH 5, pH5.0, 30 nM, read-out: current inhibition, mean (source data Fig. 1e)): 15.3%; inhibition at 0.1 µM (rat ASIC1a; CHO, pH 5, pH5.0, 100 nM, read-out: current inhibition, mean (source data Fig. 1e)): 20.5%; inhibition at 0.3 µM (rat ASIC1a; CHO, pH 5, pH5.0, 300 nM, read-out: current inhibition, mean (source data Fig. 1e)): 25.2%; inhibition at 1 µM (rat ASIC1a; CHO, pH 5, pH5.0, 1000 nM, read-out: current inhibition, mean (source data Fig. 1e)): 28.4%; inhibition at 3 µM (rat ASIC1a; CHO, pH 6, pH6.0, 3000 nM, read-out: current inhibition, mean (source data Fig. 1e)): 79.2%; inhibition at 0.01 µM (rat ASIC1a; CHO, pH 6.8, 10 nM, 0 mV, read-out: inhibition of pH 6.8-induced current): 75.6 ± 6.9%; inhibition at 0.01 µM (rat ASIC1a; CHO, pH 6.8, 10 nM, −80 mV, read-out: inhibition of pH 6.8-induced current): 78.2 ± 5%; inhibition at 0.001 µM (rat ASIC1a; CHO, pH 6.8, pH6.8, 1 nM, read-out: current inhibition, mean (source data Fig. 1e)): 15.3%; inhibition at 0.003 µM (rat ASIC1a; CHO, pH 6.8, pH6.8, 3 nM, read-out: current inhibition, mean (source data Fig. 1e)): 33.9%; inhibition at 0.01 µM (rat ASIC1a; CHO, pH 6.8, pH6.8, 10 nM, read-out: current inhibition, mean (source data Fig. 1e)): 62.8%; inhibition at 0.03 µM (rat ASIC1a; CHO, pH 6.8, pH6.8, 30 nM, read-out: current inhibition, mean (source data Fig. 1e)): 89.8%; inhibition at 0.1 µM (rat ASIC1a; CHO, pH 6.8, pH6.8, 100 nM, read-out: current inhibition, mean (source data Fig. 1e)): 97.6%; IC50 (rat ASIC1a; test pH 5.0, holding pH 8.2): 0.0344 ± 0.0076 µM; max %inhibition (rat ASIC1a; test pH 5.0, holding pH 8.2): 30.4 ± 1.8%; IC50 (rat ASIC1a; test pH 6.8, holding pH 8.2): 0.0055 ± 0.0004 µM; max %inhibition (rat ASIC1a; test pH 6.8, holding pH 8.2): 100%
